Drawing on publication PMC11116084 (Journal of Applied Glycoscience, 2024), this text covers Km for one molecule.

The test system of this assay is ALMAN (Allium cepa α-mannosidase). Kind of assay: p-nitrophenol release, absorption at […] nm. Conditions: 20 mM sodium acetate pH 4.0, 40 °C (standard assay). The assay is classed as biochemical.

As for `O=[N+]([O-])c1ccc(O[C@H]2O[C@H](CO)[C@@H](O)[C@H](O)[C@@H]2O)cc1` [pNP-α-Man], the Km is 1690 µM.
